Measurements from US20180098969A1, “HODGKIN LYMPHOMA THERAPY” (Purdue Pharmaceutical Products L.P., priority 2016, published 2018).

Key:
[1] = Weight of xenografted mice; format: in vivo, NSG mice
Procedure: Two independent experiments were performed to investigate the dose-effect of EDO-S101 in NSG mice eight weeks after xenografting with L428 cells as in Example 8. The aim of the protocol shown in FIG. 8B was to evaluate the effect of sequential treatment with a moderate dose of 60 mg/kg given at an interval of three weeks.
This weight loss was also observed in mice treated with the vehicle. In contrast, the weight of the control mice receiving only freshly prepared phosphate buffered saline (PBS) buffered to 7.3-7.4 increased up to 11 weeks and then started to decrease.
The toxicity of the dose of 80 mg/kg compared to 60 mg/kg was investigated, as compared to the control groups vehicle and PBS.

[2] = test system: L428 cells; assay: Xenograft in NSG mice, HE staining and immunohistochemistry; format: in vivo; conditions: for Injection site: Tumour cell necrosis/apoptosis: Marked / Injection site: Tumour cell necrosis/apoptosis: Mild / Injection site: Tumour cell necrosis/apoptosis: Minimal / Injection site: Tumour cell necrosis/apoptosis: Moderate / Injection site: Tumour cell necrosis/apoptosis: No / Injection site: Tumour cell necrosis/apoptosis: Overall / Injection site: Tumour cell necrosis/apoptosis: Severe / Injection site: Tumour infiltration: Marked / Injection site: Tumour infiltration: Mild / Injection site: Tumour infiltration: Minimal / Injection site: Tumour infiltration: Moderate / Injection site: Tumour infiltration: No / Injection site: Tumour infiltration: Overall / Injection site: Tumour infiltration: Severe / Liver: Tumour infiltration: Marked / Liver: Tumour infiltration: Mild / Liver: Tumour infiltration: Minimal / Liver: Tumour infiltration: Moderate / Liver: Tumour infiltration: No / Liver: Tumour infiltration: Overall / Liver: Tumour infiltration: Severe / Tumour presence: Animals with tumour infiltration in liver and in the injection area / Tumour presence: Overall / Liver: Tumour cell necrosis/apoptosis: Marked / Liver: Tumour cell necrosis/apoptosis: Mild / Liver: Tumour cell necrosis/apoptosis: Minimal / Liver: Tumour cell necrosis/apoptosis: Moderate / Liver: Tumour cell necrosis/apoptosis: No / Liver: Tumour cell necrosis/apoptosis: Overall / Liver: Tumour cell necrosis/apoptosis: Severe: % of mice
Text: Immunodeficient NOD-SCID-gammac−/− (NSG) mice aged 5 to 6 weeks were purchased from Charles River (NOD.Cg-Prkdcscid Il2rgtm1Wjl/SzJ). The mice arrived two weeks before the beginning of the experiments and were housed in micro-isolator cages during the entire course of the study. Immediately prior to the injection of Hodgkin lymphoma cells, mice were exposed to 3 Gy gamma irradiation using an IBL637 ^137Cs irradiator at a dose rate of 0.61 Gy/min. From 10^3 to 10^6 cells, either from the original cell lines or following amplification, were injected intravenously via the retro-orbital sinus. The mice were sacrificed by cervical dislocation and different organs were analysed and tumoural infiltration examined using multiple techniques.
Two independent experiments were performed to investigate the dose-effect of EDO-S101 in NSG mice eight weeks after xenografting with L428 cells as in Example 8. The aim of the protocol shown in FIG. […]
The mice were sacrificed by cervical dislocation. The sampled organs consisted of the eyes (site of injection), liver, spleen and bone marrow. Following dissection of different organs, including tumours, the first portion was used for flow cytometry (FACS) and cytogenetic analyses while the second was fixed in 4% paraformaldehyde (PFA) for immunohistochemistry (IHC). To obtain a single cell suspension, the tissues were first cut into pieces. Thereafter, the cells were physically disaggregated using an 80 μm nylon cell strainer and filtered a second time through a 70 μm nylon cell strainer (BD Biosciences, Erembodegem, Belgium).
Organs were fixed in 4% PFA, trimmed and post-fixed in 70° ethanol. They were then briefly processed using a vacuum inclusion processor and paraffin blocks were prepared. Five micrometer-thick sections were cut from these blocks and the resulting sections were stained with hemotoxylin-eosine (H&E) for histopathological analysis. In addition, IHC was carried out on of the totality of liver and spleen specimens for confirmation of the spread of engrafted cells. The search for single cells or small groups of grafted Hodgkin lymphoma cells was performed using an anti-CD30 antibody (DAKO, France; 1:40, EDTA pH9 pre-treatment) and the Ventana Discovery XT IHC system. Apoptosis and tumour necrosis were analysed.
Microscopic findings were assigned a severity score based upon the following scale: “0”=within physiological limits, “1”=minimal, “2”=mild, “3”=moderate, “4”=marked, “5”=severe. This severity score was attributed according to the size and number of observed lesions.

[3] = two doses of 60 mg/kg three weeks apart

Structure (SMILES): Cn1c(CCCCCCC(=O)NO)nc2cc(N(CCCl)CCCl)ccc21 [EDO-S101]
- difference between weight losses ([1]; 60 mg/kg versus 80 mg/kg): no significant difference
- weight of the mice or the different organs ([1]; mouse, in vivo): No significant difference
- weight of the mice [1, 3]: weight loss following each administration which was regained after several weeks
- tumour masses in liver and infiltration into other organs ([2]; 80 mg/kg): No tumour masses were observed in the liver, nor was infiltration observed into the other organs
- tumour cell necrosis ([2]; 80 mg/kg or 60 mg/kg): No cell necerosis was observed
- Injection site: Tumour cell necrosis/apoptosis: Marked ([2]; 80 mg/kg): 0.0%
- Injection site: Tumour cell necrosis/apoptosis: Mild ([2]; 80 mg/kg): 0.0%
- Injection site: Tumour cell necrosis/apoptosis: Minimal ([2]; 80 mg/kg): 0.0%
- Injection site: Tumour cell necrosis/apoptosis: Moderate ([2]; 80 mg/kg): 0.0%
- Injection site: Tumour cell necrosis/apoptosis: No ([2]; 80 mg/kg): 0.0%
- Injection site: Tumour cell necrosis/apoptosis: Overall ([2]; 80 mg/kg): 100.0%
- Injection site: Tumour cell necrosis/apoptosis: Severe ([2]; 80 mg/kg): 0.0%
- Injection site: Tumour infiltration: Marked ([2]; 80 mg/kg): 0.0%
- Injection site: Tumour infiltration: Mild ([2]; 80 mg/kg): 0.0%
- Injection site: Tumour infiltration: Minimal ([2]; 80 mg/kg): 0.0%
- Injection site: Tumour infiltration: Moderate ([2]; 80 mg/kg): 0.0%
- Injection site: Tumour infiltration: No ([2]; 80 mg/kg): 0.0%
- Injection site: Tumour infiltration: Overall ([2]; 80 mg/kg): 33.3%
- Injection site: Tumour infiltration: Severe ([2]; 80 mg/kg): 33.3%
- Liver: Tumour infiltration: Marked ([2]; 80 mg/kg): 0.0%
- Liver: Tumour infiltration: Mild ([2]; 80 mg/kg): 0.0%
- Liver: Tumour infiltration: Minimal ([2]; 80 mg/kg): 0.0%
- Liver: Tumour infiltration: Moderate ([2]; 80 mg/kg): 0.0%
- Liver: Tumour infiltration: No ([2]; 80 mg/kg): 100.0%
- Liver: Tumour infiltration: Overall ([2]; 80 mg/kg): 0.0%
- Liver: Tumour infiltration: Severe ([2]; 80 mg/kg): 0.0%
- Tumour presence: Animals with tumour infiltration in liver and in the injection area ([2]; 80 mg/kg): 0.0%
- Tumour presence: Overall ([2]; 80 mg/kg): 33.3%
- Injection site: Tumour cell necrosis/apoptosis: Marked ([2]; 1 * 60 mg/kg): 0.0%
- Injection site: Tumour cell necrosis/apoptosis: Mild ([2]; 1 * 60 mg/kg): 0.0%
- Injection site: Tumour cell necrosis/apoptosis: Minimal ([2]; 1 * 60 mg/kg): 50.0%
- Injection site: Tumour cell necrosis/apoptosis: Moderate ([2]; 1 * 60 mg/kg): 0.0%
- Injection site: Tumour cell necrosis/apoptosis: No ([2]; 1 * 60 mg/kg): 50.0%
- Injection site: Tumour cell necrosis/apoptosis: Overall ([2]; 1 * 60 mg/kg): 100.0%
- Injection site: Tumour cell necrosis/apoptosis: Severe ([2]; 1 * 60 mg/kg): 0.0%
- Injection site: Tumour infiltration: Marked ([2]; 1 * 60 mg/kg): 50.0%
- Injection site: Tumour infiltration: Mild ([2]; 1 * 60 mg/kg): 0.0%
- Injection site: Tumour infiltration: Minimal ([2]; 1 * 60 mg/kg): 0.0%
- Injection site: Tumour infiltration: Moderate ([2]; 1 * 60 mg/kg): 25.0%
- Injection site: Tumour infiltration: No ([2]; 1 * 60 mg/kg): 0.0%
- Injection site: Tumour infiltration: Overall ([2]; 1 * 60 mg/kg): 100.0%
- Injection site: Tumour infiltration: Severe ([2]; 1 * 60 mg/kg): 25.0%
- Liver: Tumour cell necrosis/apoptosis: Marked ([2]; 1 * 60 mg/kg): 0.0%
- Liver: Tumour cell necrosis/apoptosis: Mild ([2]; 1 * 60 mg/kg): 0.0%
- Liver: Tumour cell necrosis/apoptosis: Minimal ([2]; 1 * 60 mg/kg): 0.0%
- Liver: Tumour cell necrosis/apoptosis: Moderate ([2]; 1 * 60 mg/kg): 0.0%
- Liver: Tumour cell necrosis/apoptosis: No ([2]; 1 * 60 mg/kg): 100.0%
- Liver: Tumour cell necrosis/apoptosis: Overall ([2]; 1 * 60 mg/kg): 0.0%
- Liver: Tumour cell necrosis/apoptosis: Severe ([2]; 1 * 60 mg/kg): 0.0%
- Liver: Tumour infiltration: Marked ([2]; 1 * 60 mg/kg): 0.0%
- Liver: Tumour infiltration: Mild ([2]; 1 * 60 mg/kg): 25.0%
- Liver: Tumour infiltration: Minimal ([2]; 1 * 60 mg/kg): 25.0%
- Liver: Tumour infiltration: Moderate ([2]; 1 * 60 mg/kg): 25.0%
- Liver: Tumour infiltration: No ([2]; 1 * 60 mg/kg): 25.0%
- Liver: Tumour infiltration: Overall ([2]; 1 * 60 mg/kg): 75.0%
- Liver: Tumour infiltration: Severe ([2]; 1 * 60 mg/kg): 0.0%
- Tumour presence: Animals with tumour infiltration in liver and in the injection area ([2]; 1 * 60 mg/kg): 75.0%
- Tumour presence: Overall ([2]; 1 * 60 mg/kg): 100.0%
- Injection site: Tumour cell necrosis/apoptosis: Marked ([2]; 2 * 60 mg/kg): 33.3%
- Injection site: Tumour cell necrosis/apoptosis: Mild ([2]; 2 * 60 mg/kg): 66.7%
- Injection site: Tumour cell necrosis/apoptosis: Minimal ([2]; 2 * 60 mg/kg): 0.0%
- Injection site: Tumour cell necrosis/apoptosis: Moderate ([2]; 2 * 60 mg/kg): 0.0%
- Injection site: Tumour cell necrosis/apoptosis: No ([2]; 2 * 60 mg/kg): 0.0%
- Injection site: Tumour cell necrosis/apoptosis: Overall ([2]; 2 * 60 mg/kg): 100.0%
- Injection site: Tumour cell necrosis/apoptosis: Severe ([2]; 2 * 60 mg/kg): 0.0%
- Injection site: Tumour infiltration: Marked ([2]; 2 * 60 mg/kg): 11.1%
- Injection site: Tumour infiltration: Mild ([2]; 2 * 60 mg/kg): 0.0%
- Injection site: Tumour infiltration: Minimal ([2]; 2 * 60 mg/kg): 0.0%
- Injection site: Tumour infiltration: Moderate ([2]; 2 * 60 mg/kg): 0.0%
- Injection site: Tumour infiltration: No ([2]; 2 * 60 mg/kg): 0.0%
- Injection site: Tumour infiltration: Overall ([2]; 2 * 60 mg/kg): 11.1%
- Injection site: Tumour infiltration: Severe ([2]; 2 * 60 mg/kg): 0.0%
- Liver: Tumour cell necrosis/apoptosis: Marked ([2]; 2 * 60 mg/kg): 0.0%
- Liver: Tumour cell necrosis/apoptosis: Mild ([2]; 2 * 60 mg/kg): 0.0%
- Liver: Tumour cell necrosis/apoptosis: Minimal ([2]; 2 * 60 mg/kg): 0.0%
- Liver: Tumour cell necrosis/apoptosis: Moderate ([2]; 2 * 60 mg/kg): 0.0%
- Liver: Tumour cell necrosis/apoptosis: No ([2]; 2 * 60 mg/kg): 100.0%
- Liver: Tumour cell necrosis/apoptosis: Overall ([2]; 2 * 60 mg/kg): 0.0%
- Liver: Tumour cell necrosis/apoptosis: Severe ([2]; 2 * 60 mg/kg): 0.0%
- Liver: Tumour infiltration: Marked ([2]; 2 * 60 mg/kg): 0.0%
- Liver: Tumour infiltration: Mild ([2]; 2 * 60 mg/kg): 11.1%
- Liver: Tumour infiltration: Minimal ([2]; 2 * 60 mg/kg): 33.3%
- Liver: Tumour infiltration: Moderate ([2]; 2 * 60 mg/kg): 0.0%
- Liver: Tumour infiltration: No ([2]; 2 * 60 mg/kg): 55.6%
- Liver: Tumour infiltration: Overall ([2]; 2 * 60 mg/kg): 44.4%
- Liver: Tumour infiltration: Severe ([2]; 2 * 60 mg/kg): 0.0%
- Tumour presence: Animals with tumour infiltration in liver and in the injection area ([2]; 2 * 60 mg/kg): 0.0%
- Tumour presence: Overall ([2]; 2 * 60 mg/kg): 55.6%
- severity of tumoural cell infiltration ([2]; single 60 or 80 mg/kg or two injections of 60 mg/kg): significant decrease in the severity of tumoural cell infiltration
- tumour regression ([2]; single dose of 60 mg/kg): significant tumour regression
- mice with tumour lesions ([2]; single dose of 60 mg/kg, 60 mg/kg): only one mouse had moderate tumour lesions
- tumour regression ([2]; two administrations of 60 mg/kg, versus control and single 60 mg/kg): Significant tumour regression
- infiltration in the liver [2, 3]: Only one mouse exhibited a moderate level of infiltration in the liver
- tumours in organs (liver, spleen, bone marrow) [2, 3]: No tumours were observed in any organs
